# Assay results published in ChEMBL document CHEMBL1201862, “PubChem BioAssay data set” (2004).
#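 Assay format: 96-well plates, 48-hour exposure. GI50 marks 50% less growth.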 Activity calls are given as the source filed them. No stated cut-off is given here; in the data, active = GI50 up to about 1.1 µM and inactive = higher.
# What was measured:
# Experiment in all cases: NCI-60 cell line screen, 48 h
# [1] = tested on: NCI-H226
# [2] = tested on: SF-268
# [3] = tested on: SK-MEL-5
# [4] = tested on: EKVX
# [5] = tested on: SF-295
# [6] = tested on: U-251
# [7] = tested on: OVCAR-3
# [8] = tested on: TK-10
# [9] = tested on: IGROV-1
# [10] = tested on: OVCAR-8
# [11] = tested on: NCI-H522
# [12] = tested on: NCI/ADR-RES
# [13] = tested on: SK-MEL-2
# [14] = tested on: SNB-19
# [15] = tested on: Hs-578T
# [16] = tested on: PC-3
# [17] = tested on: NCI-H23
# [18] = tested on: UACC-257
# [19] = tested on: SK-OV-3
# [20] = tested on: HOP-62
# [21] = tested on: UO-31
# [22] = tested on: A498
# [23] = tested on: HT-29
# [24] = tested on: KM12
# [25] = tested on: MDA-MB-435
# [26] = tested on: MCF7
# [27] = tested on: SW-620
# [28] = tested on: HL-60
# [29] = tested on: M14
# [30] = tested on: SK-MEL-28
# [31] = tested on: RXF 393
# [32] = tested on: CCRF-CEM
# [33] = tested on: T47D
# [34] = tested on: 786-0
# [35] = tested on: SR
# [36] = tested on: COLO 205
# [37] = tested on: OVCAR-5
# [38] = tested on: HCT-15
# [39] = tested on: SN12C
# [40] = tested on: RPMI-8226
# [41] = tested on: MDA-MB-231
# [42] = tested on: OVCAR-4
# [43] = tested on: CAKI-1
# [44] = tested on: HOP-92
# [45] = tested on: SF-539
# [46] = tested on: DU-145
# [47] = tested on: Malme-3M
# [48] = tested on: SNB-75
# [49] = tested on: A549
# [50] = tested on: HCC 2998
# [51] = tested on: LOX IMVI
# [52] = tested on: MOLT-4
# [53] = tested on: MDA-N
# [54] = tested on: K562
# [55] = tested on: ACHN
# [56] = tested on: HCT-116
# [57] = tested on: NCI-H460
# [58] = tested on: UACC-62
# [59] = tested on: BT-549
compound,measurement,setting,value
N#CC1=C(N)N2C(=O)/C(=C/c3ccccc3O)N=C2S1,GI50,[1],> 100 µM (inactive)
same,GI50,[2],41.1 µM (inactive)
same,GI50,[3],80 µM (inactive)
same,GI50,[4],51.9 µM (inactive)
same,GI50,[5],> 100 µM (inactive)
same,GI50,[6],> 100 µM (inactive)
same,GI50,[7],66.2 µM (inactive)
same,GI50,[8],> 100 µM (inactive)
same,GI50,[9],29.8 µM (inactive)
same,GI50,[10],> 100 µM (inactive)
same,GI50,[11],47.8 µM (inactive)
same,GI50,[12],> 100 µM (inactive)
same,GI50,[13],> 100 µM (inactive)
same,GI50,[14],> 100 µM (inactive)
same,GI50,[15],31.3 µM (inactive)
same,GI50,[16],> 100 µM (inactive)
same,GI50,[17],95.3 µM (inactive)
same,GI50,[18],> 100 µM (inactive)
same,GI50,[19],> 100 µM (inactive)
same,GI50,[20],> 100 µM (inactive)
same,GI50,[21],94.6 µM (inactive)
same,GI50,[22],> 100 µM (inactive)
same,GI50,[23],37.7 µM (inactive)
same,GI50,[24],> 100 µM (inactive)
same,GI50,[25],> 100 µM (inactive)
same,GI50,[26],48.1 µM (inactive)
same,GI50,[27],> 100 µM (inactive)
same,GI50,[28],20.8 µM (inactive)
same,GI50,[29],49.9 µM (inactive)
same,GI50,[30],> 100 µM (inactive)
same,GI50,[31],93.3 µM (inactive)
same,GI50,[32],26.4 µM (inactive)
same,GI50,[33],> 100 µM (inactive)
same,GI50,[34],> 100 µM (inactive)
same,GI50,[35],23.6 µM (inactive)
same,GI50,[36],> 100 µM (inactive)
same,GI50,[37],98.9 µM (inactive)
same,GI50,[38],33.5 µM
same,GI50,[39],> 100 µM (inactive)
same,GI50,[40],30.6 µM (inactive)
same,GI50,[41],> 100 µM (inactive)
same,GI50,[42],44.5 µM (inactive)
same,GI50,[43],51.5 µM (inactive)
same,GI50,[44],> 100 µM (inactive)
same,GI50,[45],28.8 µM (inactive)
same,GI50,[46],> 100 µM (inactive)
same,GI50,[47],> 100 µM (inactive)
same,GI50,[48],32.9 µM (inactive)
same,GI50,[49],> 100 µM (inactive)
same,GI50,[50],92.9 µM (inactive)
same,GI50,[51],53.2 µM (inactive)
same,GI50,[52],18.5 µM (inactive)
same,GI50,[53],86.3 µM (inactive)
same,GI50,[54],26.1 µM (inactive)
same,GI50,[55],> 100 µM (inactive)
same,GI50,[56],68.1 µM (inactive)
C/C(=N\NC(=S)N(C)CCN(C)C(=S)N/N=C(\C)c1ccccn1)c1ccccn1,GI50,[1],0.316 µM (active)
same,GI50,[2],0.321 µM (active)
same,GI50,[3],0.431 µM (active)
same,GI50,[4],1.73 µM (inactive)
same,GI50,[5],0.805 µM (active)
same,GI50,[6],0.745 µM (active)
same,GI50,[7],0.174 µM (active)
same,GI50,[8],0.47 µM (active)
same,GI50,[9],0.465 µM (active)
same,GI50,[10],0.345 µM (active)
same,GI50,[11],0.731 µM (active)
same,GI50,[12],0.346 µM (active)
same,GI50,[13],10.1 µM (inactive)
same,GI50,[14],3.04 µM (inactive)
same,GI50,[15],25.9 µM (inactive)
same,GI50,[16],0.553 µM (active)
same,GI50,[17],4.38 µM (inactive)
same,GI50,[18],0.774 µM (active)
same,GI50,[19],4.21 µM (inactive)
same,GI50,[20],1.67 µM (inactive)
same,GI50,[21],0.791 µM (active)
same,GI50,[22],0.565 µM (active)
same,GI50,[23],0.224 µM (active)
same,GI50,[24],0.435 µM (active)
same,GI50,[57],0.509 µM (active)
same,GI50,[25],> 100 µM (inactive)
same,GI50,[26],2.77 µM (inactive)
same,GI50,[27],0.662 µM (active)
same,GI50,[28],0.365 µM (active)
same,GI50,[29],> 100 µM (inactive)
same,GI50,[30],1.73 µM (inactive)
same,GI50,[31],0.0843 µM (active)
same,GI50,[32],0.428 µM (active)
same,GI50,[33],1.84 µM (inactive)
same,GI50,[34],> 100 µM (inactive)
same,GI50,[35],0.697 µM (active)
same,GI50,[36],0.247 µM (active)
same,GI50,[37],5.9 µM (inactive)
same,GI50,[38],0.45 µM
same,GI50,[39],1.05 µM (active)
same,GI50,[40],1.37 µM (inactive)
same,GI50,[58],2.31 µM (inactive)
same,GI50,[41],0.246 µM (active)
same,GI50,[42],0.298 µM (active)
same,GI50,[43],1.78 µM (inactive)
same,GI50,[44],2.72 µM (inactive)
same,GI50,[45],1.66 µM (inactive)
same,GI50,[46],1.11 µM (active)
same,GI50,[47],0.826 µM (active)
same,GI50,[48],0.56 µM (active)
same,GI50,[49],2.37 µM (inactive)
same,GI50,[50],10.4 µM (inactive)
same,GI50,[51],0.811 µM (active)
same,GI50,[52],0.479 µM (active)
same,GI50,[53],3.71 µM (inactive)
same,GI50,[54],1.55 µM (inactive)
same,GI50,[55],0.366 µM (active)
same,GI50,[56],0.281 µM (active)
O=C1OC[C@@H]2Cc3c([nH]c4ccccc34)[C@@H](c3cc(O)c(O)c(O)c3)N12,GI50,[1],13.5 µM (inactive)
same,GI50,[2],34.9 µM (inactive)
same,GI50,[3],8.39 µM (inactive)
same,GI50,[4],44.5 µM (inactive)
same,GI50,[5],2.57 µM (inactive)
same,GI50,[6],25.3 µM (inactive)
same,GI50,[8],41.5 µM (inactive)
same,GI50,[9],25 µM (inactive)
same,GI50,[10],16.4 µM (inactive)
same,GI50,[11],5.09 µM (inactive)
same,GI50,[12],21.8 µM (inactive)
same,GI50,[13],3.14 µM (inactive)
same,GI50,[14],24 µM (inactive)
same,GI50,[15],15.7 µM (inactive)
same,GI50,[16],31.3 µM (inactive)
same,GI50,[17],29.4 µM (inactive)
same,GI50,[18],2.99 µM (inactive)
same,GI50,[19],> 100 µM (inactive)
same,GI50,[20],21.4 µM (inactive)
same,GI50,[21],27.3 µM (inactive)
same,GI50,[22],12 µM (inactive)
same,GI50,[23],31 µM (inactive)
same,GI50,[24],44.5 µM (inactive)
same,GI50,[57],37.8 µM (inactive)
same,GI50,[25],2.69 µM (inactive)
same,GI50,[26],21.2 µM (inactive)
same,GI50,[27],21.3 µM (inactive)
same,GI50,[28],2.72 µM (inactive)
same,GI50,[29],15.2 µM (inactive)
same,GI50,[30],17.3 µM (inactive)
same,GI50,[31],18.9 µM (inactive)
same,GI50,[32],12.6 µM (inactive)
same,GI50,[33],37 µM (inactive)
same,GI50,[34],20.6 µM (inactive)
same,GI50,[35],13.9 µM (inactive)
same,GI50,[36],23.4 µM (inactive)
same,GI50,[37],19.7 µM (inactive)
same,GI50,[38],31 µM
same,GI50,[39],26.9 µM (inactive)
same,GI50,[40],27.5 µM (inactive)
same,GI50,[58],8.93 µM (inactive)
same,GI50,[41],20.7 µM (inactive)
same,GI50,[42],12.9 µM (inactive)
same,GI50,[43],8.67 µM (inactive)
same,GI50,[44],> 100 µM (inactive)
same,GI50,[45],18.9 µM (inactive)
same,GI50,[46],68.2 µM (inactive)
same,GI50,[47],4.37 µM (inactive)
same,GI50,[48],3.29 µM (inactive)
same,GI50,[49],> 100 µM (inactive)
same,GI50,[50],48.1 µM (inactive)
same,GI50,[52],32.6 µM (inactive)
same,GI50,[53],5.97 µM (inactive)
same,GI50,[54],3.91 µM (inactive)
same,GI50,[55],31.2 µM (inactive)
same,GI50,[56],25.3 µM (inactive)
O=c1ccn(C2OC(CO)C(O)C2O)c(=O)[nH]1 (centres undefined),GI50,[1],> 1000 µM (inactive)
same,GI50,[11],> 1000 µM (inactive)
same,GI50,[18],> 1000 µM (inactive)
same,GI50,[29],> 1000 µM (inactive)
same,GI50,[59],> 1000 µM (inactive)
same,GI50,[37],> 1000 µM (inactive)
same,GI50,[41],> 1000 µM (inactive)
same,GI50,[43],> 1000 µM (inactive)
same,GI50,[46],> 1000 µM (inactive)
